Results published in ChEMBL document CHEMBL1201862, “PubChem BioAssay data set” (2004).
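Five compound concentrations were applied to cells in 96-well plates for 48 hours; endpoints were derived by simple linear interpolation of the resulting dose-response curve. At the GI50, growth is halved.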 Activity calls are given as the source filed them. No stated cut-off is given here; in the data, active = GI50 up to about 1.1 µM and inactive = higher.

Experiments:
Experiment in all cases: growth of human tumour cells (NCI), 48 h
NCI-H226 = test system: NCI-H226
RPMI-8226 = test system: RPMI-8226
SK-OV-3 = test system: SK-OV-3
HCC 2998 = test system: HCC 2998
HOP-92 = test system: HOP-92
SN12C = test system: SN12C
COLO 205 = test system: COLO 205
786-0 = test system: 786-0
ACHN = test system: ACHN
DLD-1 = test system: DLD-1
IGROV-1 = test system: IGROV-1
SK-MEL-5 = test system: SK-MEL-5
OVCAR-5 = test system: OVCAR-5
MOLT-4 = test system: MOLT-4
HT-29 = test system: HT-29
U-251 = test system: U-251
OVCAR-3 = test system: OVCAR-3
XF498 = test system: XF498
RXF 393 = test system: RXF 393
SF-268 = test system: SF-268
SNB-78 = test system: SNB-78
M14 = test system: M14
K562 = test system: K562
DMS-273 = test system: DMS-273
DMS-114 = test system: DMS-114
SNB-75 = test system: SNB-75
OVCAR-8 = test system: OVCAR-8
NCI-H522 = test system: NCI-H522
Malme-3M = test system: Malme-3M
LOX IMVI = test system: LOX IMVI
LXFL 529 = test system: LXFL 529
HCT-15 = test system: HCT-15
HCT-116 = test system: HCT-116
KM-20L2 = test system: KM-20L2
SK-MEL-2 = test system: SK-MEL-2
SF-295 = test system: SF-295
A549 = test system: A549
SW-620 = test system: SW-620
KM12 = test system: KM12
HL-60 = test system: HL-60
NCI-H460 = test system: NCI-H460
UACC-62 = test system: UACC-62
TK-10 = test system: TK-10
CCRF-CEM = test system: CCRF-CEM
EKVX = test system: EKVX
UACC-257 = test system: UACC-257
SK-MEL-28 = test system: SK-MEL-28
NCI-H23 = test system: NCI-H23
SNB-19 = test system: SNB-19
OVCAR-4 = test system: OVCAR-4
CAKI-1 = test system: CAKI-1
SR = test system: SR
UO-31 = test system: UO-31
HOP-62 = test system: HOP-62
A498 = test system: A498
SF-539 = test system: SF-539
M19-MEL = test system: M19-MEL

C/C(=N\N(C)C)C(CN(C)C)C(c1ccccc1)c1c(O)c2ccccc2oc1=O (stereo unspecified)
GI50 (NCI-H226): > 100 µM (inactive) | GI50 (RPMI-8226): > 100 µM (inactive) | GI50 (SK-OV-3): > 100 µM (inactive) | GI50 (HCC 2998): > 100 µM (inactive) | GI50 (HOP-92): 70.5 µM (inactive) | GI50 (SN12C): > 100 µM (inactive) | GI50 (COLO 205): > 100 µM (inactive) | GI50 (786-0): > 100 µM (inactive) | GI50 (ACHN): > 100 µM (inactive) | GI50 (DLD-1): > 100 µM (inactive) | GI50 (IGROV-1): > 100 µM (inactive) | GI50 (SK-MEL-5): > 100 µM (inactive) | GI50 (OVCAR-5): > 100 µM (inactive) | GI50 (MOLT-4): > 100 µM (inactive) | GI50 (HT-29): > 100 µM (inactive) | GI50 (U-251): > 100 µM (inactive) | GI50 (OVCAR-3): > 100 µM (inactive) | GI50 (XF498): > 100 µM (inactive) | GI50 (RXF 393): > 100 µM (inactive) | GI50 (SF-268): > 100 µM (inactive) | GI50 (SNB-78): > 100 µM (inactive) | GI50 (M14): > 100 µM (inactive) | GI50 (K562): > 100 µM (inactive) | GI50 (DMS-273): > 100 µM (inactive) | GI50 (DMS-114): > 100 µM (inactive) | GI50 (SNB-75): 30.3 µM (inactive) | GI50 (OVCAR-8): > 100 µM (inactive) | GI50 (NCI-H522): > 100 µM (inactive) | GI50 (Malme-3M): > 100 µM (inactive) | GI50 (LOX IMVI): > 100 µM (inactive) | GI50 (LXFL 529): > 100 µM (inactive) | GI50 (HCT-15): > 100 µM | GI50 (HCT-116): > 100 µM (inactive) | GI50 (KM-20L2): > 100 µM (inactive) | GI50 (SK-MEL-2): > 100 µM (inactive) | GI50 (SF-295): > 100 µM (inactive) | GI50 (A549): > 100 µM (inactive) | GI50 (SW-620): > 100 µM (inactive) | GI50 (KM12): > 100 µM (inactive) | GI50 (HL-60): > 100 µM (inactive) | GI50 (NCI-H460): > 100 µM (inactive) | GI50 (UACC-62): > 100 µM (inactive) | GI50 (TK-10): > 100 µM (inactive) | GI50 (CCRF-CEM): > 100 µM (inactive) | GI50 (EKVX): 68.7 µM (inactive) | GI50 (UACC-257): > 100 µM (inactive) | GI50 (SK-MEL-28): > 100 µM (inactive) | GI50 (NCI-H23): > 100 µM (inactive) | GI50 (SNB-19): > 100 µM (inactive) | GI50 (OVCAR-4): > 100 µM (inactive)

O=C(CCN1CCCCC1CO)Nc1ccc2c(c1)C(=O)c1ccc(NC(=O)CCN3CCCCC3CO)cc1C2=O (stereo unspecified)
GI50 (NCI-H226): 18.8 µM (inactive) | GI50 (RPMI-8226): 13.2 µM (inactive) | GI50 (SK-OV-3): 13.7 µM (inactive) | GI50 (HCC 2998): 9.35 µM (inactive) | GI50 (HOP-92): 15.5 µM (inactive) | GI50 (SN12C): 6.68 µM (inactive) | GI50 (COLO 205): 7.71 µM (inactive) | GI50 (786-0): 1.98 µM (inactive) | GI50 (ACHN): 11.8 µM (inactive) | GI50 (IGROV-1): 9.68 µM (inactive) | GI50 (SK-MEL-5): 15.4 µM (inactive) | GI50 (OVCAR-5): 18.7 µM (inactive) | GI50 (CAKI-1): 13.5 µM (inactive) | GI50 (MOLT-4): 8.39 µM (inactive) | GI50 (HT-29): 11.4 µM (inactive) | GI50 (U-251): 8.13 µM (inactive) | GI50 (SR): 10.7 µM (inactive) | GI50 (RXF 393): 2 µM (inactive) | GI50 (SF-268): 10 µM (inactive) | GI50 (UO-31): 13.8 µM (inactive) | GI50 (SNB-78): 7.36 µM (inactive) | GI50 (M14): 10.4 µM (inactive) | GI50 (K562): 6.25 µM (inactive) | GI50 (DMS-273): 5.16 µM (inactive) | GI50 (DMS-114): 14.1 µM (inactive) | GI50 (SNB-75): 4.28 µM (inactive) | GI50 (OVCAR-8): 6.73 µM (inactive) | GI50 (HOP-62): 14.5 µM (inactive) | GI50 (NCI-H522): 8.18 µM (inactive) | GI50 (Malme-3M): 5.27 µM (inactive) | GI50 (LOX IMVI): 6.93 µM (inactive) | GI50 (LXFL 529): 2.34 µM (inactive) | GI50 (HCT-15): 14.2 µM | GI50 (HCT-116): 7.38 µM (inactive) | GI50 (KM-20L2): 25.6 µM (inactive) | GI50 (SK-MEL-2): 4.58 µM (inactive) | GI50 (SF-295): 23.8 µM (inactive) | GI50 (A498): 2.25 µM (inactive) | GI50 (A549): 27.9 µM (inactive) | GI50 (SW-620): 3.64 µM (inactive) | GI50 (KM12): 4.34 µM (inactive) | GI50 (HL-60): 10.6 µM (inactive) | GI50 (NCI-H460): 6.58 µM (inactive) | GI50 (UACC-62): 8.95 µM (inactive) | GI50 (TK-10): 8.3 µM (inactive) | GI50 (SF-539): 3.6 µM (inactive) | GI50 (CCRF-CEM): 3.61 µM (inactive) | GI50 (EKVX): 19.1 µM (inactive) | GI50 (UACC-257): 14.4 µM (inactive) | GI50 (SK-MEL-28): 12.9 µM (inactive) | GI50 (NCI-H23): 17 µM (inactive) | GI50 (SNB-19): 11 µM (inactive) | GI50 (M19-MEL): 15.8 µM (inactive) | GI50 (OVCAR-4): 11.5 µM (inactive)

COc1cc2c(cc1OC)C1C(=O)c3c(O)cc4c(c3OC1CO2)C=CC(C)(C)O4 (stereo unspecified)
GI50 (SK-OV-3): 22.3 µM (inactive) | GI50 (HOP-92): 18.2 µM (inactive) | GI50 (SN12C): 27.2 µM (inactive) | GI50 (ACHN): 0.748 µM (active) | GI50 (IGROV-1): 19 µM (inactive) | GI50 (SK-MEL-5): 1.17 µM (inactive) | GI50 (OVCAR-5): 84.1 µM (inactive) | GI50 (CAKI-1): 21.7 µM (inactive) | GI50 (HT-29): 27.8 µM (inactive) | GI50 (U-251): 12.3 µM (inactive) | GI50 (SR): > 100 µM (inactive) | GI50 (OVCAR-3): 13.5 µM (inactive) | GI50 (SF-268): 27.6 µM (inactive) | GI50 (UO-31): 3.01 µM (inactive) | GI50 (SNB-78): 31.9 µM (inactive) | GI50 (M14): 23.5 µM (inactive) | GI50 (DMS-114): 0.366 µM (active) | GI50 (SNB-75): 26.7 µM (inactive) | GI50 (HOP-62): 14.8 µM (inactive) | GI50 (NCI-H522): 1.28 µM (inactive) | GI50 (Malme-3M): 20.6 µM (inactive) | GI50 (LOX IMVI): 5.89 µM (inactive) | GI50 (LXFL 529): 7.03 µM (inactive) | GI50 (HCT-15): 19.1 µM | GI50 (HCT-116): 10.9 µM (inactive) | GI50 (KM-20L2): 29.5 µM (inactive) | GI50 (SK-MEL-2): 18.8 µM (inactive) | GI50 (A498): 21.6 µM (inactive) | GI50 (A549): 2.25 µM (inactive) | GI50 (SW-620): 23.5 µM (inactive) | GI50 (KM12): 9.44 µM (inactive) | GI50 (NCI-H460): 20.8 µM (inactive) | GI50 (UACC-62): 12.9 µM (inactive) | GI50 (TK-10): 32.8 µM (inactive) | GI50 (SF-539): 18.2 µM (inactive) | GI50 (SK-MEL-28): 35.6 µM (inactive) | GI50 (M19-MEL): 13.8 µM (inactive)
